Data from article PMC12814185, “Receptor-Mediated Shuttling of a D‑Amino Acid Peptide Achieves High Nanomolar Cytosolic Concentrations” (Journal of the American Chemical Society, 2025).
Where a SMILES comes first, the peptide text is derived from it. Bridges are numbered along the chain shown (N, C = ends). Roman numbers before positions name the chains, in order. Triazole bridges read from a SMILES are 1,4-linked. Where no end group is shown, it is not given here. Side-chain parts run from the residue outwards. [ ]: non-standard residue; d: D form. The star is where a group is joined. X2 = CN1C(=C/C=C/C=C/C2=[N+](CCCCCC(=O)*)c3ccc(S(=O)(=O)[O-])cc3C2(C)C)C(C)(C)c2cc(S(=O)(=O)O)ccc21; X1 = CN1C(=CC=CC=CC2=[N+](CCCCCC(=O)*)c3ccc(S(=O)(=O)[O-])cc3C2(C)C)C(C)(C)c2cc(S(=O)(=O)O)ccc21; Lys(N3) = [N-]=[N+]=NCCCC[C@H](N)C(=O)O; Cit = NC(=O)NCCC[C@H](N)C(=O)O; d(hCys) = N[C@H](CCS)C(=O)O; PEG3 = NCCOCCOCCOCCC(=O)O; Pra = C#CC[C@H](N)C(=O)O

Experiments:
HEK293_CMKLR1-eYFP cells = assay: Fluorescence correlation spectroscopy (FCS) in the cytosol; details: 72 h; for cytosolic concentration, median (IQR) / cytosolic concentration, mean ± SD: FCS at 22 °C
Procedure: (§1) 3 Quantification of Cy5-labeled peptides in the cytosol. (A) RP-HPLC (λex = 640 nm, λem = 670 nm) of cleavage products of Cy5-labeled peptides in the lysate of HEK293_CMKLR1-eYFP cells after incubation with 1 μM peptide for different durations. […] (B) Representative fluorescence correlation spectroscopy (FCS) autocorrelation curves of Cy5-labeled peptides measured in the cytosol of HEK293_CMKLR1-eYFP cells after 72 h of incubation. Measured curves were fitted with a model for hindered 3D diffusion and diffusion time t D and anomalous coefficient α were calculated from the fit. Autocorrelation data represent mean ± SD of up to 10 consecutive 5 s measurements in a single cell. (C) Intracellular concentrations of Cy5-labeled peptides after 72 h incubation calculated from the fitted autocorrelation curves obtained in HEK293_CMKLR1-eYFP, HMEC-1, and THP-1 cells. Each data point corresponds to FCS measurements from the cytosol of a single cell. Median with the interquartile range is shown. Data from three independent experiments. Statistical comparison by log-normal unpaired t test. ***p ≤ 0.001, **p ≤ 0.01, *p ≤ 0.05, ns – not significant. […] (D) Calculated diffusion coefficients from the fitted autocorrelation curves. Median with the interquartile range is shown. […]
(§2) Fluorescence correlation spectroscopy (FCS)
(§3) Cytosolic delivery was quantified by FCS as has been described previously.3–5 Stably transfected HEK293_CMKLR1-eYFP cells were seeded at 30,000 cells per well and HMEC-1 cells at 10,000 cells per well into poly-ᴅ-lysine-coated 8-well microscopy slides (ibidi) in their respective cell culture medium. THP-1 cells were resuspended in fresh cell culture medium at 100,000 cells/mL in 500 µL cell culture medium in uncoated 12-well plates. The next day, dilutions of Cy5-labeled peptides were added to the cells and incubated for 72 h. Cell membranes of HMEC-1 and THP-1 cells were stained with 20 µg/mL Alexa Fluor 488-labeled concanavalin A (Invitrogen) for 20 min to enable identification of the cytosol. Nuclei were counterstained with Hoechst33342, and cells were washed with FluoroBriteTM DMEM (Gibco) + 25 mM HEPES (pH 7.4). After washing, THP-1 cells were transferred to poly-ᴅ-lysine-coated 8-well microscopy slides and allowed to sediment and adhere for 1 h. Confocal imaging and FCS were performed at 22 °C on a TCS SP8 FALCON microscope (Leica) with a Plan-Apochromat 40x/1,10 water immersion objective and HyD single molecule detector (Leica). The 638 nm laser line was used for excitation at 0.5% power and […]

THP-1 cells = assay: as above; details: THP-1, applied concentration 1000 nM, 72 h; for cytosolic concentration, mean ± SD: FCS at 22 °C
Procedure: as §1, §2, §3

[1] = target: T1, NanoLuc-MDM2 in HEK293 cells (Homo sapiens, UniProt Q00987); assay: Intracellular Cy5-PMIγ/NanoLuc-MDM2 BRET, cells without CMKLR1; format: cell-based; details: cells without CMKLR1, 72 h
T1 construct: host or cells: HEK293 and HEK293_CMKLR1-eYFP
T1 sequence (Q00987 whole entry): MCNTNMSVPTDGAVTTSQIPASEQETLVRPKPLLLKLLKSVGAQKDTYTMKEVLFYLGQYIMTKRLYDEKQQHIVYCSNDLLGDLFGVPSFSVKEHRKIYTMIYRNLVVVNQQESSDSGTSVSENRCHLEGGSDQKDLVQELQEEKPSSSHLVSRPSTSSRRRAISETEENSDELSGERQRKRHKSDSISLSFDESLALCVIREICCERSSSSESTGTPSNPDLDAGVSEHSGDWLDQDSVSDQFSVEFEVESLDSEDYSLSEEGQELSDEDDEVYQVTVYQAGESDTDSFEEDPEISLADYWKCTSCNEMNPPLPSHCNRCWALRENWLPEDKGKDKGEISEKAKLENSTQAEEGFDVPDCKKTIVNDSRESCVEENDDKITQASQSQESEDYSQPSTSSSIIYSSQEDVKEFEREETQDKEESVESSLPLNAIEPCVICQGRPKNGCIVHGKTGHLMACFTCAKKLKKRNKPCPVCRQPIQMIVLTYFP
Procedure: 4 Intracellular bioluminescence resonance energy transfer (BRET) between NanoLuc-MDM2 and Cy5-labeled PMIγ in living cells. (A) Peptides were incubated on HEK293 and HEK293_CMKLR1-eYFP cells for 72 h before BRET was measured. To evaluate the receptor-specific effect, ΔBRET was calculated by subtracting netBRET of cells without CMKLR from netBRET from cells with CMKLR1. Mean ± SEM from three independent experiments performed in duplicate. […] (B) Calculated ΔBRET values after different incubation times of peptides on the cells. (C, D) Same as panels (A) and (B), but peptide uptake was competed by coincubation with 30 μM peptide 1 (N3-cC9). […]
HEK293 and stably transfected HEK293_CMKLR1-eYFP cells were seeded at 15,000 cells per well into poly-ᴅ-lysine coated 96-well plates (white Nunc MicroWell, Thermo). […] After 10 min incubation, luminescence was measured in a Spark multimode plate reader (Tecan), and BRET ratio was calculated by […]
dividing the Cy5-signal (670±30 nm) by the NanoLuc signal (450±20 nm). netBRET was calculated by subtracting the BRET ratio from cells which were incubated without peptide. To calculate the CMKLR1-specific effect, ΔBRET was calculated by subtracting the netBRET value obtained in cells without CMKLR1 from netBRET obtained in cells with CMKLR1. After the initial readout, a kinetic BRET displacement was performed with the same cells. […]

[2] = applied concentration 10 nM, single cells, three independent experiments
[3] = applied concentration 1000 nM (1 μM)
[4] = applied concentration 10000 nM (10 μM)

Compound	cytosolic concentration, median (IQR) (HEK293_CMKLR1-eYFP cells; applied concentration 10 nM)	cytosolic concentration, mean ± SD (HEK293_CMKLR1-eYFP cells; [2]) [nM]	cytosolic concentration, mean ± SD (HEK293_CMKLR1-eYFP cells; applied concentration 100 nM) [nM]	cytosolic concentration, median (IQR) (HEK293_CMKLR1-eYFP cells; applied concentration 100 nM)	cytosolic concentration, median (IQR) (HEK293_CMKLR1-eYFP cells; [3])	cytosolic concentration, mean ± SD (HEK293_CMKLR1-eYFP cells; applied concentration 1000 nM) [nM]	cytosolic concentration, median (IQR) (HEK293_CMKLR1-eYFP cells; [4]) [nM]	cytosolic concentration, mean ± SD (HEK293_CMKLR1-eYFP cells; applied concentration 10000 nM) [nM]	cytosolic concentration, median (IQR) (THP-1 cells)	cytosolic concentration, mean ± SD (THP-1 cells) [nM]	BRET between NanoLuc-MDM2 and Cy5-labeled peptide [1]	cellular stress (HEK293_CMKLR1-eYFP cells; 10 μM, data not shown)
CC(=O)N[C@@H](CCCCn1cc(C[C@H](NC(=O)CCOCCOCCOCCNC(=O)[C@H](CCCNC(N)=O)NC(=O)[C@@H](NC(=O)[C@H](CCC(=O)O)NC(=O)CNC(=O)CNC(=O)[C@@H](CCCNC(=N)N)NC(=O)[C@@H](CC(C)C)NC(=O)[C@@H](CC(C)C)NC(=O)[C@@H](C)NC(=O)[C@@H](CCC(=O)O)NC(=O)[C@@H](Cc2ccccc2)NC(=O)[C@@H](C)NC(=O)[C@@H](CC(C)C)NC(=O)[C@H]2CCCN2C(=O)[C@@H](Cc2c[nH]c3ccccc23)NC(=O)[C@@H](Cc2c[nH]c3ccccc23)NC(=O)[C@@H](CC(=O)O)NC(=O)CCOCCOCCOCCNC(=O)CCCCC[N+]2=C(/C=C/C=C/C=C3N(C)c4ccc(S(=O)(=O)O)cc4C3(C)C)C(C)(C)c3cc(S(=O)(=O)[O-])ccc32)C(C)C)C(N)=O)nn1)C(=O)N[C@@H](Cc1ccc(O)cc1)C(=O)N[C@@H](Cc1ccccc1)C(=O)N1CCC[C@H]1C(=O)N[C@@H]1CCSSC[C@@H](C(=O)O)NC(=O)[C@H](Cc2ccccc2)NC(=O)[C@H](C)NC(=O)[C@H](Cc2ccccc2)NC(=O)[C@H](CCC(N)=O)NC1=O [2Cy] (I: {X2-PEG3}-[dD][dW][dW][dP][dL][dA][dF][dE][dA][dL][dL][dR]GGEV[Cit][PEG3][Pra]-NH2 / II: Ac-[Lys(N3)]YFP[d(hCys)]QFAFC-OH; triazole I:19-II:1; disulfide II:5-II:10)	6.2 (3.1–9.1) nM	8.4 ± 7.8	11.6 ± 14.6	6.8 (3.3–13.0) nM	43.1 (19.0–99.4) nM	78.6 ± 83.2	106	161 ± 128	14.0 (7.1–26.6) nM	22.7 ± 25.1	only a minor signal	
I: GSVSHHHHHHGGHHHH[PEG3][dK]([PEG3-X1])[dD][dW][dW][dP][dL][dA][dF][dE][dA][dL][dL][dR]GEV[Cit][PEG3][Pra]-NH2 / II: Ac-[Lys(N3)]YFP[d(hCys)]QFAFC-OH (triazole I:36-II:1; disulfide II:5-II:10) [3Cy]	5.5 (3.2–9.5) nM	6.6 ± 5.0	23.5 ± 40.2	10.2 (5.2–32.1) nM	98.8 nM	138 ± 122	228	308 ± 257	22.6 (12.7–38.5) nM	40.3 ± 77.12	strong BRET at 10 μM	showed signs of cellular stress
